Data published in patent EP4635500A1, “THERAPEUTIC AGENT FOR BACTERIAL INFECTION” (Sumitomo Pharma Co., Ltd., priority 2022, dated 2024).
Converted amounts (≈) assume the structure as drawn. Read-outs that look alike come from different tables or passages of the source.

Experiments:
Format in all cases: cell-based
Klebsiella pneumoniae = experiment: MIC, broth microdilution, standard strains and Japanese clinical isolates (Example 5, Table 4); details: IMP-6
CRE and CPE strains = experiment: MIC, broth microdilution, standard strains and Japanese clinical isolates (Example 5, Table 4 continued; organism of each KUB strain not given)
Escherichia coli = experiment: MIC, broth microdilution, standard strains and Japanese clinical isolates (Example 5, Table 4); details: ATCCBAA2452; KUB4005 Escherichia coli ATCC BAA-2452, NDM-1
Enterobacterales = experiment: MIC, broth microdilution, CDC/FDA Antibiotic Resistance Isolate Bank (Example 7, Tables 8, 11, 12); details: read-out: MIC
Providencia rettgeri = experiment: MIC, broth microdilution, standard strains and Japanese clinical isolates (Example 5, Table 4); details: ATCCBAA2525; KUB4010 Providencia rettgeri ATCC BAA-2525, OXA-181

**Q.** What does the source list for `C[C@H]1[C@H](NC(=O)/C(=N\OC(C)(C)C(=O)O)c2csc(N)n2)C(=O)N1S(=O)(=O)O` [Aztreonam, aztreonam]?
**A.** MIC (Klebsiella pneumoniae; KUB3633 Klebsiella pneumoniae Clinical isolate): 8 µg/mL (≈ 18.4 µM); MIC (Klebsiella pneumoniae; KUB3634 Klebsiella pneumoniae Clinical isolate): 16 µg/mL (≈ 36.7 µM); MIC (CRE and CPE strains; strain KUB3149, carbapenemase gene NDM-1, read-out: MIC): 8 µg/mL (≈ 18.4 µM); MIC (CRE and CPE strains; strain KUB3150, carbapenemase gene OXA-48, read-out: MIC): 8 µg/mL (≈ 18.4 µM); MIC (CRE and CPE strains; strain KUB3151, carbapenemase gene IMP-1, read-out: MIC): 0.25 µg/mL (≈ 0.574 µM); MIC (CRE and CPE strains; strain KUB3158, carbapenemase gene OXA-48): 0.12 µg/mL (≈ 0.276 µM); MIC (CRE and CPE strains; strain KUB3163, carbapenemase gene IMP-1): 0.12 µg/mL (≈ 0.276 µM); MIC (CRE and CPE strains; strain KUB3164, carbapenemase gene IMP-6): 16 µg/mL (≈ 36.7 µM); MIC (CRE and CPE strains; strain KUB3165, carbapenemase gene IMP-34): ≤ 0.03 µg/mL; MIC (CRE and CPE strains; strain KUB3166, carbapenemase gene IMP-1): 4 µg/mL (≈ 9.19 µM); MIC (CRE and CPE strains; strain KUB3628, carbapenemase gene IMP-1): 0.06 µg/mL (≈ 0.138 µM); MIC (Escherichia coli): 4 µg/mL (≈ 9.19 µM); MIC (Enterobacterales; Enterobacter cloacae, Enterobacter cloacae KUB No. 5807, AR Bank #501): 1 µg/mL (≈ 2.3 µM); MIC (Enterobacterales; Enterobacter cloacae, Enterobacter cloacae group, KUB No. 5629, AR Bank # 132): 2 µg/mL (≈ 4.59 µM); MIC (Enterobacterales; Enterobacter cloacae, KUB No. 5529, AR Bank# 32): 32 µg/mL (≈ 73.5 µM); MIC (Enterobacterales; Enterobacter cloacae, KUB No. 5557, AR Bank# 60): 32 µg/mL (≈ 73.5 µM); MIC (Enterobacterales; Enterobacter cloacae, KUB No. 5570, AR Bank # 73): 4 µg/mL (≈ 9.19 µM); MIC (Enterobacterales; Enterobacter cloacae, KUB No. 5778, AR Bank # 432): 32 µg/mL (≈ 73.5 µM); MIC (Enterobacterales; Escherichia coli, Escherichia coli KUB No. 5796, AR Bank #452): 0.12 µg/mL (≈ 0.276 µM); MIC (Enterobacterales; Escherichia coli, Escherichia coli KUB No. 5803, AR Bank #861): 1 µg/mL (≈ 2.3 µM); MIC (Enterobacterales; Escherichia coli, KUB No. 5552, AR Bank# 55): 32 µg/mL (≈ 73.5 µM); MIC (Enterobacterales; Escherichia coli, KUB No. 5555, AR Bank# 58): 8 µg/mL (≈ 18.4 µM); MIC (Enterobacterales; Escherichia coli, KUB No. 5564, AR Bank # 67): 4 µg/mL (≈ 9.19 µM); MIC (Enterobacterales; Escherichia coli, KUB No. 5566, AR Bank # 69): 4 µg/mL (≈ 9.19 µM); MIC (Enterobacterales; Escherichia coli, KUB No. 5574, AR Bank # 77): 0.06 µg/mL (≈ 0.138 µM); MIC (Enterobacterales; Escherichia coli, KUB No. 5578, AR Bank # 81): 8 µg/mL (≈ 18.4 µM); MIC (Enterobacterales; Escherichia coli, KUB No. 5581, AR Bank # 84): 0.5 µg/mL (≈ 1.15 µM); MIC (Enterobacterales; Escherichia coli, KUB No. 5582, AR Bank # 85): 16 µg/mL (≈ 36.7 µM); MIC (Enterobacterales; Escherichia coli, KUB No. 5583, AR Bank # 86): 4 µg/mL (≈ 9.19 µM); MIC (Enterobacterales; Escherichia coli, KUB No. 5586, AR Bank # 89): 16 µg/mL (≈ 36.7 µM); MIC (Enterobacterales; Escherichia coli, KUB No. 5615, AR Bank # 118): 32 µg/mL (≈ 73.5 µM); MIC (Enterobacterales; Escherichia coli, KUB No. 5646, AR Bank # 149): 0.5 µg/mL (≈ 1.15 µM); MIC (Enterobacterales; Escherichia coli, KUB No. 5647, AR Bank # 150): 32 µg/mL (≈ 73.5 µM); MIC (Enterobacterales; Escherichia coli, KUB No. 5648, AR Bank # 151): 32 µg/mL (≈ 73.5 µM); MIC (Enterobacterales; Escherichia coli, KUB No. 5764, AR Bank # 368): 0.06 µg/mL (≈ 0.138 µM); MIC (Enterobacterales; Escherichia coli, KUB No. 5767, AR Bank # 371): 16 µg/mL (≈ 36.7 µM); MIC (Enterobacterales; Escherichia coli, KUB No. 5769, AR Bank # 373): 16 µg/mL (≈ 36.7 µM); MIC (Enterobacterales; Escherichia coli, KUB No. 5770, AR Bank # 374): 16 µg/mL (≈ 36.7 µM); MIC (Enterobacterales; Escherichia coli, KUB No. 5774, AR Bank # 378): 0.12 µg/mL (≈ 0.276 µM); MIC (Enterobacterales; Escherichia coli, KUB No. 5779, AR Bank # 433): 32 µg/mL (≈ 73.5 µM); MIC (Enterobacterales; Escherichia, KUB No. 57, AR Bank # 436 (row cut off)): 32 µg/mL (≈ 73.5 µM); MIC (Enterobacterales; Klebsiella aerogenes, Enterobacter aerogenes, KUB No. 5559, AR Bank # 62): 16 µg/mL (≈ 36.7 µM); MIC (Enterobacterales; Klebsiella aerogenes, Enterobacter aerogenes, KUB No. 5571, AR Bank # 74): 0.12 µg/mL (≈ 0.276 µM); MIC (Enterobacterales; Klebsiella aerogenes, Enterobacter aerogenes, KUB No. 5658, AR Bank # 161): 32 µg/mL (≈ 73.5 µM); MIC (Enterobacterales; Klebsiella aerogenes, Enterobacter aerogenes, KUB No. 5777, AR Bank # 431): 16 µg/mL (≈ 36.7 µM); MIC (Enterobacterales; Klebsiella oxytoca, KUB No. 5644, AR Bank # 147): 4 µg/mL (≈ 9.19 µM); MIC (Enterobacterales; Klebsiella oxytoca, KUB No. 5771, AR Bank # 375): 32 µg/mL (≈ 73.5 µM); MIC (Enterobacterales; Klebsiella pneumoniae, KUB No. 5531, AR Bank# 34): 0.06 µg/mL (≈ 0.138 µM); MIC (Enterobacterales; Klebsiella pneumoniae, KUB No. 5573, AR Bank # 76): 0.25 µg/mL (≈ 0.574 µM); MIC (Enterobacterales; Klebsiella pneumoniae, KUB No. 5623, AR Bank # 126): 32 µg/mL (≈ 73.5 µM); MIC (Enterobacterales; Klebsiella pneumoniae, KUB No. 5657, AR Bank # 160): 0.12 µg/mL (≈ 0.276 µM); MIC (Enterobacterales; Klebsiella pneumoniae, Klebsiella pneumoniae KUB No. 5809, AR Bank #504): 32 µg/mL (≈ 73.5 µM); MIC (Enterobacterales; Morganella morganii, Morganella morganii KUB No. 5824, AR Bank #519): 32 µg/mL (≈ 73.5 µM); MIC (Enterobacterales; Proteus mirabilis, KUB No. 5556, AR Bank# 59): 0.25 µg/mL (≈ 0.574 µM); MIC (Enterobacterales; Proteus mirabilis, KUB No. 5652, AR Bank # 155): 4 µg/mL (≈ 9.19 µM); MIC (Enterobacterales; Proteus mirabilis, KUB No. 5653, AR Bank # 156): ≤ 0.03 µg/mL; MIC (Enterobacterales; Proteus mirabilis, KUB No. 5656, AR Bank # 159): ≤ 0.03 µg/mL; MIC (Enterobacterales; Proteus mirabilis, KUB No. 5773, AR Bank # 377): 4 µg/mL (≈ 9.19 µM); MIC (Enterobacterales; Proteus mirabilis, KUB No. 5775, AR Bank # 379): 0.25 µg/mL (≈ 0.574 µM); MIC (Enterobacterales; Providencia rettgeri, KUB No. 5579, AR Bank # 82): ≤ 0.03 µg/mL; MIC (Enterobacterales; Raoultella ornithinolvtica, KUB No. 5631, AR Bank # 134): 8 µg/mL (≈ 18.4 µM); MIC (Enterobacterales; Serratia marcescens, KUB No. 5588, AR Bank # 91): 32 µg/mL (≈ 73.5 µM); MIC (Enterobacterales; Serratia marcescens, KUB No. 5618, AR Bank # 121): 16 µg/mL (≈ 36.7 µM); MIC (Enterobacterales; Serratia marcescens, KUB No. 5619, AR Bank # 122): 16 µg/mL (≈ 36.7 µM); MIC (Enterobacterales; Serratia marcescens, KUB No. 5620, AR Bank # 123): 16 µg/mL (≈ 36.7 µM); MIC (Enterobacterales; Serratia marcescens, KUB No. 5621, AR Bank # 124): 8 µg/mL (≈ 18.4 µM); MIC (Enterobacterales; Serratia marcescens, KUB No. 5627, AR Bank # 130): 16 µg/mL (≈ 36.7 µM); MIC (Enterobacterales; Serratia marcescens, KUB No. 5628, AR Bank # 131): 16 µg/mL (≈ 36.7 µM); MIC (Enterobacterales; Serratia marcescens, Serratia marcescens KUB No. 5825, AR Bank #520): 2 µg/mL (≈ 4.59 µM); MIC (Providencia rettgeri): 1 µg/mL (≈ 2.3 µM)
